From patent publication US7217688B2, “Methods and compositions for derepression of IAP-inhibited caspase” (The Burnham Institute, priority 2005, dated 2007)
Values belong to the compound of their own block, whether it stands above or below them. Square brackets hold non-standard residues; d marks the D form. Ends that are not written are not given here. * marks the point of attachment. Phe(4-Cl) = N[C@@H](Cc1ccc(Cl)cc1)C(=O)O; dPhe(4-Cl) = N[C@H](Cc1ccc(Cl)cc1)C(=O)O; dPhe(4-F) = N[C@H](Cc1ccc(F)cc1)C(=O)O; 2Nal = N[C@@H](Cc1ccc2ccccc2c1)C(=O)O; d2Nal = N[C@H](Cc1ccc2ccccc2c1)C(=O)O; Fmoc = O=C(OCC1c2ccccc2-c2ccccc21)*; 2Thi = N[C@@H](Cc1cccs1)C(=O)O; Cha = N[C@@H](CC1CCCCC1)C(=O)O

How the values were obtained:
[1] = system: Jurkat leukemia cells; experiment: Jurkat cell death (Annexin V / propidium iodide flow cytometry); type: cell-based; conditions: for ability to induce apoptosis in Jurkat cells: micromolar concentrations, compared to DMSO control
Method: The following assay was used to test the ability of individual compounds from the TPI 1396 and TPI 1391 libraries to induce apoptosis of cultured tumor cell lines. Each of the compounds listed in Table IX was individually added to Jurkat leukemia cells (6.25×10^5 cells/mL) in RPMI containing 2.5% FBS at various concentrations for 20 hours. After incubation, cells were washed and stained with FITC-conjugated Annexin V antibody and propidium iodide (Biovision; Mountain View, Calif.). Cells were incubated for 20 minutes at room temperature in the dark and fluorescence was measured by flow cytometry (FACScan, Immunocytometry system; Becton-Dickinson; San Jose, Calif.). Cells staining positive for Annexin V were deemed non-viable.

[2] = target: full length XIAP (Homo sapiens, UniProt P98170); experiment: potency of IAP antagonists at restoring caspase-3 activity / SMAC competition assay (Table VIII)
[3] = target: T1, XIAP-inhibited caspase-3 (Homo sapiens, UniProt P98170); experiment: caspase derepression assay (XIAP-inhibited caspase-3, Ac-DEVD-AFC hydrolysis); type: biochemical; conditions: for Activity: Table XIV, XIAP derepression assay; for LC (lowest concentration with a ratio of 2 or higher in the derepression assay): tested at 0.4, 2, 10 and 50 micrograms per milliliter; for reversing XIAP-mediated suppression of caspase 3: 50 μg/ml, full length XIAP
T1 construct: in the derepression assay using full length XIAP; made in house; host or cells: bacteria
Method: Caspase activity was assayed by release of 7-amino-4-trifluoromethyl-coumarin (AFC) from Ac-DEVD-AFC synthetic peptide using a Molecular Devices Spectromax 340 (see Zhou et al., J. Biol. Chem. 272:7797–7800 (1997)). […] The ratio of Vmax for hydrolysis of Ac-DEVD-AFC in the presence and absence of the candidate mixture was calculated and used to identify those that contain an agent that derepresses an IAP-inhibited caspase.
Screening of each mixture from the DCR390, TPI 1239 or TPI 1328 library, respectively, using the above described assay was carried out as follows. Each mixture was aliquoted in a 25 microliter volume and in duplicate to a well of a 96 well microtiter plate. […] Fluorescence of liberated AFC was immediately detected from each well for 30 minutes at 30 second intervals. The Vmax for hydrolysis of AC-DEVD-AFC from each well was measured using the softmax software package. Results of the screen for the DCR390 library are shown in Table I. Sets of mixtures having the same position fixed with different respective amino acids are arranged in 6 sections identified with the position number. […] The mixture in each section are arranged in descending order according to apparent velocity in the second column.
Briefly, recombinant proteins were produced in bacteria and purified as described, for example, in Deveraux et al., Nature 388:300–304(1997). […] Generation of fluorogenic AFC (7-amino-4-trifluoromethyl coumarin) product was measured with a spectrofluorometric plate reader in kinetic mode for 30 minutes at 37° C. using excitation and emission wavelengths of 405 nm and 510 nm, respectively. […] Control reactions lacked XIAP, and all assays were conducted in the linear range of substrate hydrolysis to avoid substrate depletion artifacts.

[4] = system: NCI panel of 60 tumor cell lines; experiment: NCI panel of 60 tumor cell lines, protein-based colorimetric assay; parameters: species or system human; conditions: 48 hours
Method: Selected polyphenylurea compounds were tested on the National Cancer Institute (NCI) panel of 60 tumor cell lines (see FIG. 28a and FIG. 29).

[5] = Table XI, different functionalities at R2

T1 sequence (P98170 whole entry): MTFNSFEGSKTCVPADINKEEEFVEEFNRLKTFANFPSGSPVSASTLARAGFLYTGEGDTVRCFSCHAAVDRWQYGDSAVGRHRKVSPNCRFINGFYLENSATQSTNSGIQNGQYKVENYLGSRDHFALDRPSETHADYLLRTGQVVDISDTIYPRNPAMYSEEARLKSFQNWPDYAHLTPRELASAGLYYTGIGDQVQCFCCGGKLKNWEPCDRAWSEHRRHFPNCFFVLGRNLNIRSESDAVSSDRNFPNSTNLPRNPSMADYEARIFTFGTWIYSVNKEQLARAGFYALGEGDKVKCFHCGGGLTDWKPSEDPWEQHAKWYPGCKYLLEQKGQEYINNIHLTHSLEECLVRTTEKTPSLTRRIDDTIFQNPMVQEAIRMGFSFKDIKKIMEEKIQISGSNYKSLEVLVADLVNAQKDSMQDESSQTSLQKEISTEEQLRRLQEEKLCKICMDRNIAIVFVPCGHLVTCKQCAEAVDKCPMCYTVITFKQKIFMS
Sequence of full length XIAP (P98170 whole entry): as above

EC50 ([2]; amount of compound necessary to restore caspase-3 activity to 50% of Vmax): 33.6 µM
Relative Potency ([2]; fold relative to SMAC AVPI tetrapeptide): 3.7
Compound: CCCCCCCN1C(=O)C(=O)N(C(CCCC)CNCc2ccccc2)CC1Cc1ccc2ccccc2c1 (stereo not shown) [TPI 1391-21]
% nonviable cells ([1]; 1 μM, 20 hours): 16%
% nonviable cells ([1]; 5 μM (first column headed 5), 20 hours): 11%
% nonviable cells ([1]; 5 μM (second column headed 5), 20 hours): 18%
% nonviable cells ([1]; 10 μM, 20 hours): 44%
% nonviable cells ([1]; 25 μM, 20 hours): 91%
% nonviable cells ([1]; 50 μM, 20 hours): 94%

Compound: CN(CCCCC(CNC(=O)Nc1ccccc1)N(CC1CCCN1CCC12CC3CC(CC(C3)C1)C2)C(=O)Nc1ccccc1)C(=O)Nc1ccccc1 (stereo not shown) [TPI 1396-11]
Activity (relative caspase-3 activity, ratio of Vmax with compound to Vmax of caspase-3 and XIAP controls) ([3]; Table X, R2 = L-Proline): 2.6
activity in the derepression assay using full length XIAP ([3]; active / inactive): active
% nonviable cells ([1]; 1 µM): 14%
% nonviable cells ([1]; 10 μM): 90%
% nonviable cells ([1]; 25 µM): 90%
% nonviable cells ([1]; 50 µM): 90%
average LD50 for the 60 cell lines [4]: 10 ± 2.8 µM
median LD50 for the 60 cell lines [4]: 17 µM

Activity (relative caspase-3 activity, ratio of Vmax with compound to Vmax of caspase-3 and XIAP controls) [3, 5]: 1.6
Compound: COc1ccc(CCN(CCCC[C@@H](CN(C(=O)Nc2ccccc2)[C@@H](CNC(=O)Nc2ccccc2)CC2CCCCC2)N(C)C(=O)Nc2ccccc2)C(=O)Nc2ccccc2)cc1 [TPI 1396-25]

Activity (relative caspase-3 activity, ratio of Vmax with compound to Vmax of caspase-3 and XIAP controls) [3, 5]: 1.3
Compound: COc1ccc(CCN(C(=O)Nc2ccccc2)[C@H](Cc2ccccc2)CN(C(=O)Nc2ccccc2)[C@@H](CNC(=O)Nc2ccccc2)CC2CCCCC2)cc1 [TPI 1396-31]

Activity [3]: 209 µM
Compound: CCN1CCC[C@@H]1CN(C)[C@@H](CNC(=O)Nc1ccccc1)CC1CCCCC1 [TPI 1567-5]

Activity [3]: 75 µM
Compound: COc1ccc(CCN2CCC[C@@H]2CN(C)[C@@H](CNC(=O)Nc2ccc(C)cc2)CC2CCCCC2)cc1 [TPI 1567-11]
ability to induce apoptosis in Jurkat cells [1]: capable of inducing apoptosis

Activity [3]: 124 µM
Compound: COc1ccc(CCN2CCC[C@@H]2CN(C)[C@@H](CNC(=O)Nc2ccc(F)cc2)CC2CCCCC2)cc1 [TPI 1567-12]
ability to induce apoptosis in Jurkat cells [1]: capable of inducing apoptosis

Activity [3]: 58 µM
Compound: COc1ccc(CCN2CCC[C@@H]2CN(C)[C@@H](CNC(=O)Nc2ccc(I)cc2)CC2CCCCC2)cc1 [TPI 1567-13]
ability to induce apoptosis in Jurkat cells [1]: capable of inducing apoptosis

Activity [3]: 81 µM
Compound: COc1ccc(CCN2CCC[C@@H]2CN(C)[C@@H](CNC(=O)Nc2cc(Br)cc(Br)c2)CC2CCCCC2)cc1 [TPI 1567-14]
ability to induce apoptosis in Jurkat cells [1]: capable of inducing apoptosis

Activity [3]: 61 µM
Compound: CN(C[C@@H]1CCCN1CCC12CC3CC(CC(C3)C1)C2)[C@H](CCCCNC(=O)Nc1ccccc1)CNC(=O)Nc1ccccc1 [TPI 1567-18]

Activity [3]: 35 µM
Compound: COc1ccc(CCN2C[C@@H](O)C[C@@H]2CN(C(=O)Nc2ccccc2)[C@@H](CNC(=O)Nc2ccccc2)CC2CCCCC2)cc1 [TPI 1567-23]

Activity [3]: 122 µM
Compound: COc1ccc(CCN2C[C@@H](O)C[C@@H]2CN(C)[C@@H](CNC(=O)Nc2ccccc2)CC2CCCCC2)cc1 [TPI 1567-24]

Activity [3]: >283 µM
Compound: COc1ccc(CCN2CCC[C@H]2CNC(=O)Nc2ccccc2)cc1 [TPI 1572-8]

Activity [3]: >210 µM
Compound: O=C(NC[C@@H](CC1CCCCC1)N(C[C@@H]1CCCN1)C(=O)Nc1ccccc1)Nc1ccccc1 [TPI 1572-10]

Activity [3]: 89 µM
Compound: CCN1CCC[C@H]1CN(C(=O)Nc1ccccc1)[C@@H](CNC(=O)Nc1ccccc1)CC1CCCCC1 [TPI 1572-11]

Activity [3]: 103 µM
Compound: COc1ccc(CCN2CCC[C@H]2CN(C)[C@@H](CNC(=O)Nc2ccccc2)CC2CCCCC2)cc1 [TPI 1572-14]

Activity [3]: 171 µM
Compound: COc1ccc(CCN2CCC[C@H]2CN(CCNC(=O)Nc2ccccc2)C(=O)Nc2ccccc2)cc1 [TPI 1572-15]

Activity [3]: 149 µM
Compound: COc1ccc(CCN2CCC[C@H]2CN(C(=O)Nc2ccccc2)[C@H](C)CNC(=O)Nc2ccccc2)cc1 [TPI 1572-16]

Activity [3]: 132 µM
Compound: CNC[C@@H](CC1CCCCC1)N(C[C@@H]1CCCN1CCc1ccc(OC)cc1)C(=O)Nc1ccccc1 [TPI 1572-17]

Activity [3]: 164 µM
Compound: COc1ccc(CCN2CCC[C@H]2CN(C(=O)c2ccccc2)[C@@H](CNC(=O)c2ccccc2)CC2CCCCC2)cc1 [TPI 1572-18]

Activity [3]: >219 µM
Compound: COc1ccc(CCN2CCC[C@H]2CN(C(C)=O)[C@@H](CNC(C)=O)CC2CCCCC2)cc1 [TPI 1572-19]

Activity [3]: 235 µM
Compound: CCNC(=O)NC[C@@H](CC1CCCCC1)N(C[C@@H]1CCCN1CCc1ccc(OC)cc1)C(=O)NCC [TPI 1572-20]

Activity [3]: 69 µM
Compound: COc1ccc(CCN2CCC[C@H]2CN(C(=O)Nc2ccc(C)cc2)[C@@H](CNC(=O)Nc2ccc(C)cc2)CC2CCCCC2)cc1 [TPI 1572-21]

Activity [3]: 79 µM
Compound: COc1ccc(CCN2CCC[C@H]2CN(C(=O)Nc2ccc(F)cc2)[C@@H](CNC(=O)Nc2ccc(F)cc2)CC2CCCCC2)cc1 [TPI 1572-22]

Compound: COc1ccc(CCN2CCC[C@H]2CN(C(=O)Nc2ccc([N+](=O)[O-])cc2)[C@@H](CNC(=O)Nc2ccc([N+](=O)[O-])cc2)CC2CCCCC2)cc1 [TPI 1572-23]
Activity [3]: 94 µM

Activity [3]: 252 µM
Compound: COc1ccc(CCN2CCC[C@@H]2CN(C)[C@H](C)CNC(=O)Nc2ccccc2)cc1 [TPI 1577-1]

Activity [3]: 157 µM
Compound: COc1ccc(CCN2CCC[C@@H]2CN(C)CCNC(=O)Nc2ccccc2)cc1 [TPI 1577-2]

Activity [3]: >241 µM
Compound: COc1ccc(CCN2CCC[C@@H]2CN(C)[C@@H](CNC(=O)Nc2ccccc2)CC(C)C)cc1 [TPI 1577-3]

Activity [3]: 113 µM
Compound: CN(C[C@H]1CCCN1CCc1ccccc1)[C@@H](CNC(=O)Nc1ccccc1)CC1CCCCC1 [TPI 1577-6]

Activity [3]: 71 µM
Compound: CN(C[C@H]1CCCN1CCc1ccc(F)cc1)[C@@H](CNC(=O)Nc1ccccc1)CC1CCCCC1 [TPI 1577-7]

Activity [3]: 88 µM
Compound: Cc1ccc(CCN2CCC[C@@H]2CN(C)[C@@H](CNC(=O)Nc2ccccc2)CC2CCCCC2)cc1 [TPI 1577-8]

Activity [3]: 23 µM
Compound: COc1ccc(CCN2CCC[C@@H]2CN(C)[C@@H](CNC(=O)Nc2ccc3ccccc3c2)CC2CCCCC2)cc1 [TPI 1577-9]
ability to induce apoptosis in Jurkat cells [1]: capable of inducing apoptosis

LC (lowest concentration with a ratio of 2 or higher in the derepression assay) [3]: 10 µg/mL
Compound: (D-Nal)-(D-pClPhe)-(L-pC1Phe)-(Lys-εFmoc) ([d2Nal][dPhe(4-Cl)][Phe(4-Cl)]K(Fmoc)) [TPI 792-9]

LC (lowest concentration with a ratio of 2 or higher in the derepression assay) [3]: 2 µg/mL
Compound: (D-Nal)-(L-Nal)-(D-Lys-εFmoc)-(Lys-εFmoc) ([d2Nal][2Nal][dK](Fmoc)K(Fmoc)) [TPI 792-17]

LC (lowest concentration with a ratio of 2 or higher in the derepression assay) [3]: 2 µg/mL
Compound: (D-Nal)-(L-Nal)-(L-pClPhe)-(Lys-εFmoc) ([d2Nal][2Nal][Phe(4-Cl)]K(Fmoc)) [TPI 792-15]

LC (lowest concentration with a ratio of 2 or higher in the derepression assay) [3]: 2 µg/mL
Compound: (D-Nal)-(Lys-εFmoc)-(L-pClPhe)-(Lys-εFmoc) ([d2Nal]K(Fmoc)[Phe(4-Cl)]K(Fmoc)) [TPI 792-3]

reversing XIAP-mediated suppression of caspase 3 [3]: Active
Compound: (L-Ala)-(D-Trp)-(L-Trp)-(L-ThiAla) (A[dW]W[2Thi]) [TPI 1332-47]

reversing XIAP-mediated suppression of caspase 3 [3]: Active
Compound: (L-Ala)-(L-Trp)-(L-Trp)-(L-ThiAla) (AWW[2Thi]) [TPI 1332-1]

reversing XIAP-mediated suppression of caspase 3 [3]: Active
Compound: (L-Cha)-(D-Na1)-(L-Trp)-(L-ThiAla) ([Cha][d2Nal]W[2Thi]) [TPI 1332-41]

LC (lowest concentration with a ratio of 2 or higher in the derepression assay) [3]: 2 µg/mL
Compound: (L-ThiAla)-(D-pClPhe)-(L-pClPhe)-(Lys-εFmoc) ([2Thi][dPhe(4-Cl)][Phe(4-Cl)]K(Fmoc)) [TPI 792-27]

LC (lowest concentration with a ratio of 2 or higher in the derepression assay) [3]: 2 µg/mL
Compound: (L-ThiAla)-(Lys-εFmoc)-(D-Nal)-(Lys-εFmoc) ([2Thi]K(Fmoc)[d2Nal]K(Fmoc)) [TPI 792-19]

LC (lowest concentration with a ratio of 2 or higher in the derepression assay) [3]: 2 µg/mL
Compound: (L-ThiAla)-(Lys-εFmoc)-(L-pClPhe)-(pF-D-F) ([2Thi]K(Fmoc)[Phe(4-Cl)][dPhe(4-F)]) [TPI 792-22]
